Measurements reported in patent US20080009418A1, “Selective Inhibitors” (Alchemia LTD., priority 2004, published 2008).

Experiments:
[1] = target: T1, Human neuropeptide Y (NPY-Y1) (Homo sapiens, UniProt P25929); assay: Radioligand binding, human neuropeptide Y NPY-Y1 membranes, FlashPlate, [125I]-PYY; settings: compound at 10 μM, [125I]-PYY
T1 construct: purchased Perkin Elmer Biosignal
T1 sequence (P25929 1-384): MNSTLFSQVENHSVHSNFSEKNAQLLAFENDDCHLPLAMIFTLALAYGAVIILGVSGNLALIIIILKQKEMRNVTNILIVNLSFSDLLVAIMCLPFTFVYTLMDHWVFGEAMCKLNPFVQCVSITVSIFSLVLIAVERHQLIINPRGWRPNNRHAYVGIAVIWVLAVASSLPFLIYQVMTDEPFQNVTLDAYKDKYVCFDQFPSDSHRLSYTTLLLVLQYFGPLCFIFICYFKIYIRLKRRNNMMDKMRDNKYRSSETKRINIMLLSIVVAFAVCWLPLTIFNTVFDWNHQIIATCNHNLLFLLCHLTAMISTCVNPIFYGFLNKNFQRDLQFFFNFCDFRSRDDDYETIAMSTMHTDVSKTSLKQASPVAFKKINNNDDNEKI
How it was run: (§1)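 Cloned human receptor membranes were coated onto FlashPlate wells and incubated with radioligand and compound (added from a 0.5 mM DMSO daughter plate) for 1 hour at room temperature in the dark. Scintillation counting gave percent inhibition, with DMSO defining total and reference ligand defining non-specific binding.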

[2] = target: T2, Human neurokinin (NK1) (Homo sapiens, UniProt P25103); assay: Radioligand binding, human neurokinin NK1 membranes, filtration, [125I]-Substance P; settings: compound at 10 μM, [125I]-Substance P
T2 construct: purchased Perkin Elmer Biosignal
How it was run: (§2)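 Filtration binding on cloned human receptor membranes (1 Unit/well), [125I]-Substance P for NK1 and [3H]-Diprenorphine for KOP, 1 h at room temperature. Filters PEI-presoaked, washed with cold 50 mM Tris-HCl pH 7.4, counted by scintillation; percent inhibition calculated, reference ligand defining non-specific binding.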

[3] = target: T3, Human melanocortin (MC5) (Homo sapiens, UniProt P33032); assay: Radioligand binding, human melanocortin MC5 membranes, FlashPlate, [125I]-NDP-αMSH; settings: compound at 10 μM, [125I]-NDP-αMSH
T3 construct: purchased Perkin Elmer Biosignal
How it was run: as §1

[4] = target: T4, Mouse urotensin (mUR2) (Mus musculus, UniProt Q8VIH9); assay: Radioligand binding, mouse urotensin mUR2 membranes, FlashPlate, [125I]-Urotensin II; settings: compound at 10 μM, [125I]-Urotensin II
T4 construct: purchased Perkin Elmer Biosignal
T4 sequence (Q8VIH9 1-385): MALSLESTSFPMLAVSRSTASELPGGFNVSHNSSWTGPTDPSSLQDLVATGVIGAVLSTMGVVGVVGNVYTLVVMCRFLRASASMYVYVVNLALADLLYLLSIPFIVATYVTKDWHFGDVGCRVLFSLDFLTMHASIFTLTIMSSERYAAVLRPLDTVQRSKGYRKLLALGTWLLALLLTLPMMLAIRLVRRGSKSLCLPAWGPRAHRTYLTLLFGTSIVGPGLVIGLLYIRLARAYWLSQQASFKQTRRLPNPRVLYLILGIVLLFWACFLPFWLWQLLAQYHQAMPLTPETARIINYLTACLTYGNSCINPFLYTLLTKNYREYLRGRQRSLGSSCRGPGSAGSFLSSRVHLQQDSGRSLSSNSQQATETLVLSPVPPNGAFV
How it was run: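 Cloned mouse urotensin (mUR2) receptor membranes from Perkin Elmer Biosignal were immobilized in FlashPlate microplates using a proprietary coating. Each well got 19.5 μl buffer, then 0.5 μl of DMSO, reference ligand, or compound. Adding 5 μl of [125I]-Urotensin II, diluted to 5× final concentration in binding buffer, started binding. Plates were sealed with TopSeal-A and incubated 1 hour at room temperature in the dark. Wells were counted for 30 seconds each on a TopCount after a 60-second delay, and percentage inhibition was calculated.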

[5] = target: T5, Human melanin-concentrating hormone (MCH1) (Homo sapiens, UniProt Q99705); assay: Radioligand binding, human melanin-concentrating hormone MCH1 membranes, FlashPlate, [125I]-S36057; settings: compound at 10 μM; for A6: inhibition of radioligand binding, human melanin-concentrating hormone (MCH1): [125I]-S36057
T5 construct: purchased Perkin Elmer Biosignal
How it was run: as §1

[6] = target: T6, Human Melanocortin (MC4) (Homo sapiens, UniProt P32245); assay: Radioligand binding, human melanocortin MC4 membranes, FlashPlate, [125I]-NDP-αMSH; settings: compound at 10 μM, [125I]-NDP-αMSH
T6 construct: purchased Perkin Elmer Biosignal
How it was run: as §1

[7] = target: T7, Human μ-opioid (MOP) (Homo sapiens, UniProt P35372); assay: Radioligand binding, human μ-opioid (MOP) membranes, FlashPlate, [3H]-Naloxone; settings: compound at 10 μM, [3H]-Naloxone
T7 construct: purchased Perkin Elmer Biosignal
How it was run: as §1

[8] = target: T8, Human κ-Opioid (KOP) (Homo sapiens, UniProt P41145); assay: Radioligand binding, human κ-opioid (KOP) membranes, filtration, [3H]-Diprenorphine; settings: compound at 10 μM, [3H]-Diprenorphine
T8 construct: purchased Perkin Elmer Biosignal
How it was run: as §2

[9] = target: T9, Human opioid (ORL1) (Homo sapiens, UniProt P41146); assay: Radioligand binding, human opioid ORL1 membranes, FlashPlate, [125I]-Nociceptin; settings: compound at 10 μM, [125I]-Nociceptin
T9 construct: purchased Perkin Elmer Biosignal
How it was run: as §1

[10] = target: T10, Human δ-opioid (DOP) (Homo sapiens, UniProt P41143); assay: Radioligand binding, human δ-opioid (DOP) membranes, FlashPlate, [3H]-Bremazocine; settings: compound at 10 μM, [3H]-Bremazocine
T10 construct: purchased Perkin Elmer Biosignal
How it was run: as §1

[11] = target: T11, Human Melanocortin (MC3) (Homo sapiens, UniProt P41968); assay: Radioligand binding, human melanocortin MC3 membranes, FlashPlate, [125I]-NDP-αMSH; settings: compound at 10 μM, [125I]-NDP-αMSH
T11 construct: purchased Perkin Elmer Biosignal
How it was run: as §1

T10 sequence (P41143 whole entry): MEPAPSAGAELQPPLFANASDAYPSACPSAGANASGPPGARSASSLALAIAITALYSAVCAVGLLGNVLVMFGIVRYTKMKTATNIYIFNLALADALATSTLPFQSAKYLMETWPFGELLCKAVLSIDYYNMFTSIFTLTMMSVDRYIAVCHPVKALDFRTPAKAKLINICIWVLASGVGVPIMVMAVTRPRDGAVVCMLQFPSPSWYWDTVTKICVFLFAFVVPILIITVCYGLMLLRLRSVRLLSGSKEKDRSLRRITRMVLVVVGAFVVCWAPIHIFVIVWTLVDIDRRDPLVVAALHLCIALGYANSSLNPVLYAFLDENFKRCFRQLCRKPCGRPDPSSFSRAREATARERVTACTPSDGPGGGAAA
T9 sequence (P41146 whole entry): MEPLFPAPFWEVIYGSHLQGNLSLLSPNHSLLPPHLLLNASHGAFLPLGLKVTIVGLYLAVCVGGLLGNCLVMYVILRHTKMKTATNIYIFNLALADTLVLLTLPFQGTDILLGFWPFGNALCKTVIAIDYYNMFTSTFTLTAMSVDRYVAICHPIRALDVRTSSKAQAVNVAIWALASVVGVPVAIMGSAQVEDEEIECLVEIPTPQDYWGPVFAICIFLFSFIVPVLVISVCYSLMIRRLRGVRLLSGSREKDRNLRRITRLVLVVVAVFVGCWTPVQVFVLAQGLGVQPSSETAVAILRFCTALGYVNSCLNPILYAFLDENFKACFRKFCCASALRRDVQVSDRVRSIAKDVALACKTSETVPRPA
T7 sequence (P35372 whole entry): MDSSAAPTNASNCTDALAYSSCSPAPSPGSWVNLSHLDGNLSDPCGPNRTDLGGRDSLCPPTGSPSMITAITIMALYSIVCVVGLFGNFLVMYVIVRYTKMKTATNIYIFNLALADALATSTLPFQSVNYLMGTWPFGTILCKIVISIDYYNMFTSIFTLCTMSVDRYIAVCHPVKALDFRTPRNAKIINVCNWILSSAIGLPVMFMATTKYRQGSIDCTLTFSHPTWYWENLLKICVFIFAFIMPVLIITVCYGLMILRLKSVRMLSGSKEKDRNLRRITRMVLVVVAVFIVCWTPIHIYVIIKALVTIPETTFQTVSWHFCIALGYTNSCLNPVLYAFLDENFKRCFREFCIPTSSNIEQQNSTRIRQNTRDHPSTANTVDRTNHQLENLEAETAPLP
T8 sequence (P41145 whole entry): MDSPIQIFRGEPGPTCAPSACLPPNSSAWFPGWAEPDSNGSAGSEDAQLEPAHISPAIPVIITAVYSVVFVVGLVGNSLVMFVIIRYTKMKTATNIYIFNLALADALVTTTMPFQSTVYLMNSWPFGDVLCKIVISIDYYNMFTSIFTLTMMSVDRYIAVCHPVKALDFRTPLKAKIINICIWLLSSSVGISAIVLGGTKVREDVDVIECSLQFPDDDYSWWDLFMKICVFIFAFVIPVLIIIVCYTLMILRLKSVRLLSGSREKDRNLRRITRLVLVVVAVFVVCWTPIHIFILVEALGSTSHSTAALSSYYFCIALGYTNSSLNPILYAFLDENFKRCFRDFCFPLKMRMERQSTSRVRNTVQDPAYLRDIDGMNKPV
T2 sequence (P25103 whole entry): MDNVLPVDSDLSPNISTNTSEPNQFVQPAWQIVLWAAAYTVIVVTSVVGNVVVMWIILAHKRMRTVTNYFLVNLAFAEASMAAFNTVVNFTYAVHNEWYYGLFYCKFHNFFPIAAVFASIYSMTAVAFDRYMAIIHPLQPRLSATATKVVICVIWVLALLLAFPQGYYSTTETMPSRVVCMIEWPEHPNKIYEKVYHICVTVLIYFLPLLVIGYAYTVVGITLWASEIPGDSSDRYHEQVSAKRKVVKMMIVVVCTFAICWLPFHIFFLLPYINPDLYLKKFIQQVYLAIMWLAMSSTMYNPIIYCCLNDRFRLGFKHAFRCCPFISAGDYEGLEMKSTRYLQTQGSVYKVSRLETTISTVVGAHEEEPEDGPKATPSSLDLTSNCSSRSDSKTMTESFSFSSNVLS
T3 sequence (P33032 whole entry): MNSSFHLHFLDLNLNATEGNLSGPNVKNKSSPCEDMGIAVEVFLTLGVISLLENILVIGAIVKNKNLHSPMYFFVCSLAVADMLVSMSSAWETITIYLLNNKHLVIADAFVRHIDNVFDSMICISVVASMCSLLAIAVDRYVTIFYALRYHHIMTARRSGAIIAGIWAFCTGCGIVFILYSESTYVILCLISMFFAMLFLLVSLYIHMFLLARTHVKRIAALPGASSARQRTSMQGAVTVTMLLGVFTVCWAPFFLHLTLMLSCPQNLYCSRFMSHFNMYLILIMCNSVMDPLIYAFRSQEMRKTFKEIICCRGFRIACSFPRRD
T5 sequence (Q99705 whole entry): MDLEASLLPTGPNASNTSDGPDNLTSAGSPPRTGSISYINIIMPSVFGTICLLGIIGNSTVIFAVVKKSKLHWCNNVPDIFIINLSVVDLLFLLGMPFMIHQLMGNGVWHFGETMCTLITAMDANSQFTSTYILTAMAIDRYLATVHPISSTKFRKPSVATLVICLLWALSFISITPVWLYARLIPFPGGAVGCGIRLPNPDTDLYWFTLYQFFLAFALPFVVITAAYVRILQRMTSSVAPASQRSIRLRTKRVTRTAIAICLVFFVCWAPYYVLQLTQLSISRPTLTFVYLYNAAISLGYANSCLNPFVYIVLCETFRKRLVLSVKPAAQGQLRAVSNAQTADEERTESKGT
T11 sequence (P41968 whole entry): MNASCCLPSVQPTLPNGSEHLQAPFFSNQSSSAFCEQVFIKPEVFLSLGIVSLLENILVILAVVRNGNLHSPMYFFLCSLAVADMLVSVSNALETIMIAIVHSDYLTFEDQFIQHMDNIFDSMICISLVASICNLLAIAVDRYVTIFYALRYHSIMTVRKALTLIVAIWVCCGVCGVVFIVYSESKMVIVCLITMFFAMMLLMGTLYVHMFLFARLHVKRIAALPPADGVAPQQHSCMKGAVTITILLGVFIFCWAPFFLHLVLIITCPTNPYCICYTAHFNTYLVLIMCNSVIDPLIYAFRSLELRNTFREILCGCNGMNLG
T6 sequence (P32245 whole entry): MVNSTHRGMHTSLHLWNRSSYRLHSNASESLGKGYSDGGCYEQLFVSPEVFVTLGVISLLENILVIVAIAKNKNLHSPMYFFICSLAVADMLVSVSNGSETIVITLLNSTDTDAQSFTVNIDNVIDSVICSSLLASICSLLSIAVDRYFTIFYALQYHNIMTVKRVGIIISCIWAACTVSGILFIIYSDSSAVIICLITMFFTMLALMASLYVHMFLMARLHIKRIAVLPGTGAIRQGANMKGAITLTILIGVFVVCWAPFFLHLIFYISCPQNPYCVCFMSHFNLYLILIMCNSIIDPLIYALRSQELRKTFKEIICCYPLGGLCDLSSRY

SMILES	A9: inhibition of radioligand binding, human neuropeptide Y (NPY-Y1) [1]	A8: inhibition of radioligand binding, human neurokinin (NK1) [2]	A5: inhibition of radioligand binding, human melanocortin (MC5) [3]	A11: inhibition of radioligand binding, mouse urotensin (mUR2) [4]	A4: inhibition of radioligand binding, human melanocortin (MC4) [6]	A7: inhibition of radioligand binding, human μ-opioid (MOP) [7]	A2: inhibition of radioligand binding, human κ-opioid (KOP) [8]	A10: inhibition of radioligand binding, human opioid (ORL1) [9]	A1: inhibition of radioligand binding, human δ-opioid (DOP) [10]	A3: inhibition of radioligand binding, human melanocortin (MC3) [11]	A9: inhibition of radioligand binding ([1]; FlashPlate)	A8: inhibition of radioligand binding ([2]; filtration)	A5: inhibition of radioligand binding ([3]; FlashPlate)	A11: inhibition of radioligand binding ([4]; FlashPlate)	A6: inhibition of radioligand binding ([5]; [125I]-S36057, FlashPlate)	A4: inhibition of radioligand binding ([6]; FlashPlate)	A7: inhibition of radioligand binding ([7]; FlashPlate)	A2: inhibition of radioligand binding ([8]; filtration)	A10: inhibition of radioligand binding ([9]; FlashPlate)	A1: inhibition of radioligand binding ([10]; FlashPlate)	also measured
NCCC(=O)NC1C(OCc2ccccc2)OC(COCc2ccccc2)C(O)C1OCc1ccc(Cl)cc1 (stereo not shown) [compound 365]	− (“−” indicates less than 50% inhibition at 10 μM)	+ (“+” indicates greater than 50% inhibition at 10 μM)	− (“−” indicates less than 50% inhibition at 10 μM)	− (“−” indicates less than 50% inhibition at 10 μM)	− (“−” indicates less than 50% inhibition at 10 μM)	− (“−” indicates less than 50% inhibition at 10 μM)	− (“−” indicates less than 50% inhibition at 10 μM)	− (“−” indicates less than 50% inhibition at 10 μM)	− (“−” indicates less than 50% inhibition at 10 μM)	− (“−” indicates less than 50% inhibition at 10 μM)											A6: inhibition of radioligand binding, human melanin-concentrating hormone (MCH1) [5]: − (“−” indicates less than 50% inhibition at 10 μM)
NCCCC(=O)NC1C(OCc2ccc(Cl)cc2)OC(COCc2ccc3ccccc3c2)C(O)C1OCc1ccc(Cl)cc1 (single isomer, unassigned) [compound 489]	− (“−” indicates less than 50% inhibition at 10 μM)	+ (“+” indicates greater than 50% inhibition at 10 μM)	+ (“+” indicates greater than 50% inhibition at 10 μM)	− (“−” indicates less than 50% inhibition at 10 μM)	+ (“+” indicates greater than 50% inhibition at 10 μM)	+ (“+” indicates greater than 50% inhibition at 10 μM)	− (“−” indicates less than 50% inhibition at 10 μM)	+ (“+” indicates greater than 50% inhibition at 10 μM)	− (“−” indicates less than 50% inhibition at 10 μM)	+ (“+” indicates greater than 50% inhibition at 10 μM)											A6: inhibition of radioligand binding, human melanin-concentrating hormone (MCH1) ([5]; 10 µM): − (“−” indicates less than 50% inhibition at 10 μM)
CSC1OC(COCc2ccc(-c3ccccc3)cc2)C(O)C(OCc2ccccc2)C1NC(=O)CCN (stereo not shown) [compound 256]											− (“−” indicates less than 50% inhibition at 10 μM)	+ (“+” indicates greater than 50% inhibition at 10 μM)	− (“−” indicates less than 50% inhibition at 10 μM)	− (“−” indicates less than 50% inhibition at 10 μM)	− (“−” indicates less than 50% inhibition at 10 μM)	− (“−” indicates less than 50% inhibition at 10 μM)	− (“−” indicates less than 50% inhibition at 10 μM)	− (“−” indicates less than 50% inhibition at 10 μM)	− (“−” indicates less than 50% inhibition at 10 μM)	− (“−” indicates less than 50% inhibition at 10 μM)	A3: inhibition of radioligand binding ([11]; FlashPlate): − (“−” indicates less than 50% inhibition at 10 μM)
COCC1OC(OCc2ccc3ccccc3c2)C(NC(=O)CNC(=N)N)C(OCc2ccc3ccccc3c2)C1O (stereo not shown) [compound 247]											− (“−” indicates less than 50% inhibition at 10 μM)	+ (“+” indicates greater than 50% inhibition at 10 μM)	+ (“+” indicates greater than 50% inhibition at 10 μM)	− (“−” indicates less than 50% inhibition at 10 μM)	− (“−” indicates less than 50% inhibition at 10 μM)	+ (“+” indicates greater than 50% inhibition at 10 μM)	− (“−” indicates less than 50% inhibition at 10 μM)	− (“−” indicates less than 50% inhibition at 10 μM)	− (“−” indicates less than 50% inhibition at 10 μM)	− (“−” indicates less than 50% inhibition at 10 μM)	A3: inhibition of radioligand binding ([11]; FlashPlate): + (“+” indicates greater than 50% inhibition at 10 μM)
NCCCC(=O)NC1C(OCc2ccccc2)OC(COCc2ccc(Cl)cc2)C(O)C1OCc1ccccc1 (stereo not shown) [compound 380]																					A9: inhibition of radioligand binding ([1]; human NPY-Y1 membranes): − (“−” indicates less than 50% inhibition at 10 μM); A8: inhibition of radioligand binding ([2]; human NK1 membranes): + (“+” indicates greater than 50% inhibition at 10 μM); A5: inhibition of radioligand binding ([3]; human MC5 membranes): − (“−” indicates less than 50% inhibition at 10 μM); A11: inhibition of radioligand binding ([4]; mouse mUR2 membranes): − (“−” indicates less than 50% inhibition at 10 μM); A6: inhibition of radioligand binding ([5]; [125I]-S36057, human MCH1 membranes): − (“−” indicates less than 50% inhibition at 10 μM); A4: inhibition of radioligand binding ([6]; human MC4 membranes): + (“+” indicates greater than 50% inhibition at 10 μM); A7: inhibition of radioligand binding ([7]; human MOP membranes): − (“−” indicates less than 50% inhibition at 10 μM); A2: inhibition of radioligand binding ([8]; human KOP membranes): − (“−” indicates less than 50% inhibition at 10 μM); A10: inhibition of radioligand binding ([9]; human ORL1 membranes): − (“−” indicates less than 50% inhibition at 10 μM); A1: inhibition of radioligand binding ([10]; human DOP membranes): − (“−” indicates less than 50% inhibition at 10 μM); A3: inhibition of radioligand binding ([11]; human MC3 membranes): − (“−” indicates less than 50% inhibition at 10 μM)
